Our source for the IC50 and Ki values is BindingDB's records for doi:10.1080/14756360701546413 (Dumlupinar University, 2008).

This test addresses Glutathione-disulfide reductase (Escherichia coli O157:H7, UniProt A0A0H3JIZ9). The test can be described thus: Enzyme Assay. On the procedure: The enzyme activities in the absence of drugs or chemicals were taken as 100%. For each drug or chemical, an activity%-(drug) graph was drawn and drug concentrations producing 50% inhibition were calculated for the inhibitors.

Chain of Glutathione-disulfide reductase (A0A0H3JIZ9 whole entry): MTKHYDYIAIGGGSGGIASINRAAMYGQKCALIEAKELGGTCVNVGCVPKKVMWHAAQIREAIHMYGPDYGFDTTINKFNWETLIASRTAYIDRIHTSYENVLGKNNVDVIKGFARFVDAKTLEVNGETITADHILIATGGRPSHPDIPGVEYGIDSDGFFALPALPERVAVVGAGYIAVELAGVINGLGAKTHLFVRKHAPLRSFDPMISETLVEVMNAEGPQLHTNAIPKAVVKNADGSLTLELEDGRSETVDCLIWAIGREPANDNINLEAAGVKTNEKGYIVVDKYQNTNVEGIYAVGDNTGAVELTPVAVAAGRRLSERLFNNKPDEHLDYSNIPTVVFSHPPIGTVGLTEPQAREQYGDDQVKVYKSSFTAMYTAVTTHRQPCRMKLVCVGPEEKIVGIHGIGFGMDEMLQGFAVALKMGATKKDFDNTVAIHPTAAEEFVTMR

Compound `CC(CCC(=O)Nc1nnc(S(N)(=O)=O)s1)C1CCC2C3C(O)CC4CC(O)CCC4(C)C3CCC12C` (centres undefined) [Sulfonamide derivative, 2] had an IC50 of 4.5 µM and an inhibition constant (Ki) of 6.1 µM.

In turn, `CC(CCC(=O)Nc1nnc(S(N)(=O)=O)s1)C1CCC2C3CCC4CC(O)CCC4(C)C3CCC12C` (centres undefined) [Sulfonamide derivative, 1] displayed an IC50 of 47.1 µM and a Ki of 72.3 µM.
